Test results as given in the supplement of paper PMC10307832.

Experiments:
Test in all cases: relative viability (nuclei count vs DMSO), 5 days (fraction); higher = more cells survive
[1] = compound: CCN1CCC(CC1)N2C=C(N=N2)CNC3=CC4=C(C(=CN=C4C(=C3)Cl)C#N)NC5=CC(=C(C=C5)F)Cl [KIN001-266] + CS(=O)(=O)CCNCc1ccc(-c2ccc3ncnc(Nc4ccc(OCc5cccc(F)c5)c(Cl)c4)c3c2)o1 [Lapatinib] (partner 2 µM)
Outline: (§1)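 Lung cancer cell lines were seeded in 1536-well plates and dosed by pin tool the next day, with either a single drug or a fixed anchor-drug dose combined with five library-drug doses (not always all listed) spaced in √10 steps. Five days later, one step fixed the cells and stained their nuclei (final 0.05% Triton X-100, 1% formaldehyde, 1 ug/ml Hoechst), and nuclei were counted on 4× images. Relative viability is the nuclei count in treated wells divided by the count in vehicle wells, and each value is the median of duplicate plates.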

[2] = compound: CCN1CCC(CC1)N2C=C(N=N2)CNC3=CC4=C(C(=CN=C4C(=C3)Cl)C#N)NC5=CC(=C(C=C5)F)Cl [KIN001-266] + Nc1ncn([C@H]2C[C@H](O)[C@@H](CO)O2)c(=O)n1 [Decitabine] (partner 2 µM)
Outline: as §1

[3] = compound: CCN1CCC(CC1)N2C=C(N=N2)CNC3=CC4=C(C(=CN=C4C(=C3)Cl)C#N)NC5=CC(=C(C=C5)F)Cl [KIN001-266] + O=C(c1cc(Cc2n[nH]c(=O)c3ccccc23)ccc1F)N1CCN(C(=O)C2CC2)CC1 [Olaparib] (partner 8 µM)
Outline: as §1

[4] = compound: CCN1CCC(CC1)N2C=C(N=N2)CNC3=CC4=C(C(=CN=C4C(=C3)Cl)C#N)NC5=CC(=C(C=C5)F)Cl [KIN001-266] + NC(=O)Nc1cc(-c2cccc(F)c2)sc1C(=O)N[C@H]1CCCNC1 [AZD7762] (partner 0.2 µM)
Outline: as §1

Row | Cell Line | relative viability ([1]; first compound 0.08 µM) | relative viability ([1]; first compound 0.253 µM) | relative viability ([1]; first compound 0.8 µM) | relative viability ([1]; first compound 2.53 µM) | relative viability ([1]; first compound 8 µM) | relative viability ([2]; first compound 0.08 µM) | relative viability ([2]; first compound 0.253 µM) | relative viability ([2]; first compound 0.8 µM) | relative viability ([2]; first compound 2.53 µM) | relative viability ([2]; first compound 8 µM) | relative viability ([3]; first compound 0.08 µM) | relative viability ([3]; first compound 0.253 µM) | relative viability ([3]; first compound 0.8 µM) | relative viability ([3]; first compound 2.53 µM) | relative viability ([3]; first compound 8 µM) | relative viability ([4]; first compound 0.08 µM) | relative viability ([4]; first compound 0.253 µM) | relative viability ([4]; first compound 0.8 µM) | relative viability ([4]; first compound 2.53 µM) | relative viability ([4]; first compound 8 µM)
1 | NCI-H2347 | 0.952 | 0.956 | 0.925 | 0.915 | 0.51 | 0.64 | 0.643 | 0.56 | 0.622 | 0.458 | 0.619 | 0.593 | 0.507 | 0.568 | 0.479 | 0.77 | 0.799 | 0.771 | 0.736 | 0.537
2 | NCI-H2405 | 1.08 | 1.23 | 1.09 | 1.16 | 0.936 | 0.772 | 0.78 | 0.783 | 0.694 | 0.627 | 0.889 | 0.905 | 0.906 | 0.853 | 0.642 | 0.761 | 0.752 | 0.865 | 0.739 | 0.488
3 | NCI-H3122 | 0.893 | 0.945 | 1.03 | 0.964 | 0.907 | 0.435 | 0.472 | 0.426 | 0.442 | 0.326 | 0.588 | 0.689 | 0.636 | 0.576 | 0.524 | 0.937 | 1.15 | 1.08 | 0.947 | 0.956
4 | PC-3 [JPC-3] | 0.451 | 0.447 | 0.422 | 0.414 | 0.499 | 0.786 | 0.87 | 0.823 | 0.824 | 0.737 | 1.09 | 1.21 | 1.08 | 1.14 | 0.963 | 0.792 | 0.915 | 0.799 | 0.775 | 0.801
5 | PC-14 | 0.307 | 0.368 | 0.27 | 0.287 | 0.312 | 0.214 | 0.253 | 0.2 | 0.265 | 0.229 | 0.24 | 0.354 | 0.251 | 0.312 | 0.141 | 0.365 | 0.405 | 0.315 | 0.355 | 0.3
6 | RERF-LC-KJ | 0.871 | 0.828 | 0.817 | 0.857 | 0.781 | 0.744 | 0.777 | 0.767 | 0.64 | 0.497 | 0.974 | 0.952 | 0.858 | 0.762 | 0.649 | 0.984 | 0.876 | 0.809 | 0.768 | 0.947
